This is an account of results in PubChem BioAssay (NCI).

Where “and” joins values, the source holds several entries; their conditions need not be identical. Identical values can stand only once.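 Results reflect a 48-hour exposure of cells in 96-well plates to compound at five concentrations. Abbreviation: GI50, concentration required for 50% inhibition of growth. TGI is the concentration that stops growth completely.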 Some results are limits rather than exact numbers.

Common to all, as to experiment: DTP human tumour cell line panel, 48 h
Assay [1] deals with NCI-H226 lung.
In assay [2] the test system is COLO 205 colon.
In assay [3] the test system is HOP-92 NSCLC.
Assay [4] relates to SW-620 colon.
Assay [5] concerns OVCAR-4 ovarian.
Assay [6] deals with IGROV1 ovarian.
Assay [7] relates to T-47D breast.

As for `CCN(CC)S(=O)(=O)c1ccc(OC)c(Nc2ncc(-c3ccccc3)o2)c1`, the GI50 (commonly the concentration giving 50% growth inhibition) in assay [1] was greater than 5.28 µM; in assay [2], greater than 25 µM; in assay [3], 7120 nM; in assay [4] it was greater than 23.7 µM; in assay [5] it was 5.57 µM; in assay [6] it was greater than 25000 nM. In assay [7], the GI50 was greater than 11000 nM. The TGI in assay [1], in assay [2], in assay [3], in assay [4], in assay [5] and in assay [6] was greater than 25 µM throughout. The TGI – broadly, the concentration at which net growth stops – in assay [7] is 24.4 µM.
Regarding `CC(C)(C)C[C@H]1NC(C(=O)NCC[C@H](O)CO)[C@H](c2cccc(Cl)c2)[C@@]12C(=O)Nc1cc(Cl)c(F)cc12` (stereo partly specified), the GI50 was 2.46 µM in assay [1]; 16.1 µM in assay [2]; 13300 nM in assay [3]; 16.6 µM in assay [4]; 14.8 µM in assay [5]; 4080 nM in assay [6]. Besides, the GI50 in assay [7] is 16700 nM. In addition, the TGI was determined as 14.1 µM in assay [1]; 30.7 µM in assay [2]; 28.4 µM in assay [3]; 34.1 µM in assay [4]; 32.4 µM in assay [5]; 21.1 µM in assay [6]. The compound also returned a concentration for total growth inhibition (TGI) in assay [7] of 37.7 µM.
As for `Cc1ccc2c(ccc3c[n+]4c5ccccc5ccc4n32)c1`, the GI50 in assay [1] is 2.43 µM; in assay [2], 0.485 µM; in assay [3], 1540 nM; in assay [4] it was 0.508 µM; in assay [5], 1.32 µM; in assay [6], 1520 nM. Also, the GI50 in assay [7] is 618 nM. The TGI in assay [1] came to 10.4 µM; in assay [2], 2.35 µM; in assay [3] it was 5.47 µM; in assay [4], 10.7 µM; in assay [5], 4.64 µM; in assay [6], 18.6 µM. The compound further returned a TGI in assay [7] of 3.59 µM.
For the compound `O=C1c2ccccc2-c2c1c1ccccc1c(=O)n2CCCNCCCNCCCn1c2c(c3ccccc3c1=O)C(=O)c1ccccc1-2`, the GI50 in assay [1] is less than 0.014 µM; in assay [2] it was 0.572 µM; in assay [3], 587 nM; in assay [4], less than 0.01 µM; in assay [5], 0.188 µM; in assay [6] it was less than 10 nM. For the same compound, the GI50 in assay [7] is 1640 nM. Moreover, the TGI in assay [1] was 0.903 µM; in assay [2], 8.1 µM; in assay [3], 2.18 µM; in assay [4], 0.15 µM; in assay [5] it was 1.02 µM; in assay [6] it was less than 0.0416 µM. The same compound returned a total growth inhibition concentration (TGI) in assay [7] of 6.4 µM.
Consider `COc1ccc(N2C(C)=C(C#N)C34C(=O)N(c5ccccc5)C(=O)C3=C(O)C=CC24O)cc1` (stereo unspecified), for which the GI50 in assay [1] is 13.5 µM; in assay [2] it was 10.8 µM; in assay [3], 12500 nM; in assay [4], 10.3 µM; in assay [5], 24.4 µM; in assay [6], 2110 nM. The GI50 in assay [7] is 13000 nM. Besides, the TGI in assay [1] came out at 35.1 µM; in assay [2], 23.2 µM; in assay [3] it was 45.3 µM; in assay [4], 24.6 µM; in assay [5] it was 94.5 µM; in assay [6], 21.1 µM. In assay [7], this compound gave a TGI of 33.8 µM.
`CC(C)NC[C@@H](C(=O)N1CCN(c2ncnc3c2[C@H](C)C[C@H]3O)CC1)c1ccc(Cl)cc1`: the GI50 in assay [1] is 5.16 µM and 13.3 µM; in assay [2], 3.48 µM and 7.6 µM; in assay [3] it was 407 nM and 1130 nM; in assay [4] it was > 10 µM and 35.9 µM; in assay [5] it was greater than 74 µM; in assay [6] it was 156 nM and 203 nM. The concentration for 50% growth inhibition (GI50) in assay [7] is 208 nM and 236 nM. Moreover, the TGI is greater than 100 µM in assay [1]; greater than 100 µM in assay [2]; 6.8 µM and 11.6 µM in assay [3]; greater than 100 µM in assay [4]; greater than 100 µM in assay [5]; 0.731 µM and 3.02 µM in assay [6].
For the compound `C[C@H](Nc1ncnc2nc[nH]c12)c1cc2cccc(Cl)c2c(=O)n1-c1ccccc1`, the GI50 in assay [1] is greater than 77.4 µM; in assay [2], 19.7 µM; in assay [3] it was 1380 nM; in assay [4] it was 36.5 µM; in assay [5], greater than 100 µM; in assay [6], 1580 nM. Also, the GI50 in assay [7] was 1580 nM. The TGI in assay [1] is greater than 100 µM; in assay [2], greater than 100 µM; in assay [3], 69.7 µM; in assay [4] it was greater than 100 µM; in assay [5], greater than 100 µM; in assay [6], 7.51 µM. This compound also had a TGI in assay [7] greater than 43.5 µM.
As for `CNC(=O)c1cncc(/C=C/c2ccccc2C)c1`, the GI50 in assay [1] is greater than 25 µM; in assay [2] it was greater than 25 µM; in assay [3] it was greater than 25000 nM; in assay [4], greater than 25 µM; in assay [5] it was greater than 25 µM; in assay [6], greater than 25000 nM. Also, the GI50 in assay [7] is greater than 25000 nM. For the same compound, the TGI in assay [1], in assay [2], in assay [3], in assay [4], in assay [5] and in assay [6] was greater than 25 µM throughout. This compound also registered a total growth inhibition concentration (TGI) in assay [7] greater than 25 µM.
